From patent US11903981B2, “Use of Anaerofustis stercorihominis in preventing and/or treating metabolic diseases” (priority 2018, dated 2024)
Marks after values point to notes of the source that are not given here.

What was measured:
Assay type in all cases: in vivo
[1] = system: SD rats, myocardial ischemia induced by pituitrin; assay: Experimental myocardial ischemia in rats induced by pituitrin, ST-segment displacement; settings: gavage daily for 10 days, pituitrin 1 unit/kg iv., **P<0.01, *P<0.05 relative to model group
Protocol: Fifty SD rats (purchased from Guangdong Medical Experimental Animal Center, half male and half female) at 180-220 g of body weight and 6 weeks old were used in this experiment, which were normally fed in a Specific pathogen Free (SPF) environment. The rats were adaptively fed for 1 week and then randomly divided into 5 groups, with 10 rats in each group.
Model group: the rats were fed with 2.5 ml/kg PBS by gavage daily for 10 consecutive days; Bacterial agent group 1: the rats were fed with 2.5 ml/kg AM25-6 bacterial solution (1×10^9 cfu/ml) by gavage daily for 10 consecutive days;
Bacterial agent group 2: the rats were fed with 2.5 ml/kg DSM 17244 bacterial solution (1×10^9 cfu/ml) by gavage daily for 10 consecutive days;
Bacterial agent group 3: the rats were fed with 2.5 ml/kg DSM 28733 bacterial solution (1×10^9 cfu/ml) by gavage daily for 10 consecutive days;
FuFangDanShen tablet group: the rats were fed with 2 g/kg FuFangDanShen tablet (SFDA approval number Z21020381, Tianjin Tasly (Liaoning) Pharmaceutical Co., Ltd.) by gavage daily for 10 consecutive days.
For each group, the standard lead I electrocardiogram was recorded post 1 hour of last administration, followed by sublingual intravenous injection (iv.) with pituitrin (SFDA approval number H31022259, specifications: 2 ml: 6 units, from Shanghai First Biochemical & Pharmaceutical Industry Co., Ltd.) in 1 unit/kg (in a volume of 1 ml/kg) within 15 seconds, after which the change of electrocardiogram was recorded post 5 seconds, 15 seconds, 30 seconds, 1 minute, 2 minutes, 3 minutes and 5 minutes, and the change of ST segment displacement before and after administration of pituitrin was measured and compared, with statistical analysis by using t test between groups.

[2] = system: T2D mice model (C57bL/6 mice); assay: T2D animal model, fasting blood glucose
Protocol: (§1) The T2D animal model is constructed by using C57bL/6 mice (purchased from Guangdong Medical Experimental Animal Center) at 8 weeks old and 20±2 g of body weight. The mice were housed in a specific pathogen free (SPF) environment and adaptively fed for 1 week, followed by grouping and modeling. The T2D animal model is induced by injection of streptozotocin (STZ) along with feeding high-fat feed, and the mice having fasting blood glucose (FBG) reaching to 10 mM/L can be used as a T2D mice model. Fifty mice selected for experiments are randomly divided into 5 groups.
(§2) Bacterial agent group 1: the T2D mice model was administered with the AM25-6 bacterial solution (1×10^8 cfu/ml) by gavage;
(§3) Bacterial agent group 2: the T2D mice model was administered with the DSM 17244 bacterial solution (1×10^8 cfu/ml) by gavage;
(§4) Bacterial agent group 3: the T2D mice model was administered with the DSM 28733 bacterial solution (1×10^8 cfu/ml) by gavage;
(§5) Metformin treatment group: the T2D mice model was treated with the positive drug metformin.
(§6) The experiment was carried out based on the different groups. After the construction of T2D mice model (i.e., FBG>10), the treatment was started and lasted for 2 months. The food intake amount and body weight of mice were recorded daily. Blood of mice was collected from the tail vein every week for detection of fasting blood glucose. The oral glucose tolerance test (OGTT) of mice was measured at week 4 of treatment and at the end of the experiment.

[3] = system: T2D mice model (C57bL/6 mice); assay: T2D animal model (STZ plus high-fat feed), body weight; settings: gavage
Protocol: as §1, §2, §3, §4, §5, §6

[4] = system: C57bL/6 mice fed with high-fat feed; assay: Hyperlipidemia animal model (high-fat feed), blood lipids and blood viscosity; settings: for blood viscosity: carotid artery blood, hemorheological examination; for HDLC (high-density lipoprotein) / LDLC (low-density lipoprotein) / TC (total cholesterol) / TG (triglyceride): serum, bacterial solution 2 ml 1×10^9 cfu/ml daily or tablets 0.6 g/kg
Protocol: Sixty C57bL/6 mice (purchased from Guangdong Medical Experimental Animal Center) at 6 weeks old were used in this experiment, which were normally fed in a Specific pathogen Free (SPF) environment. The mice were adaptively fed for 1 week and then randomly divided into 6 groups, with 10 mice in each group. The animal model is constructed along with intervention.
Bacterial agent group 1: the mice were fed with high-fat feed and 2 ml of AM25-6 bacterial solution (1×10^9 cfu/ml) daily;
Bacterial agent group 2: the mice were fed with high-fat feed and 2 ml of DSM 17244 bacterial solution (1×10^9 cfu/ml) daily;
Bacterial agent group 3: the mice were fed with high-fat feed and 2 ml of DSM 28733 bacterial solution (1×10^9 cfu/ml) daily;
Tongmai Jiangzhi tablet group (a positive drug for the treatment of hyperlipidemia): the mice were fed with high-fat feed and 0.6 g/kg Tongmai Jiangzhi tablets;
Experimental data such as the body condition, food intake amount and the like of mice was recorded every week before and after the intervention of the model. After the completion of experiment, the mice were sacrificed, and the fat content was recorded, the serum was collected for detection of blood lipid contents (including total cholesterol (TC), triglyceride (TG), high-density lipoprotein (HDLC) and low-density lipoprotein (LDLC)) in the serum according to the instruction of kit. Blood from the last carotid artery was taken for hemorheological examination.

[5] = system: obesity mice model (C57BL/6 male mice, high-fat feed); assay: Obesity animal model (high-fat feed), body weight; settings: bacterial solution 1×10^8 cfu/ml by gavage; for Weight of mice, Week 9: Week 9, *P<0.05 relative to model group
Protocol: The obesity animal model is constructed by using C57BL/6 male mice (purchased from Guangdong Medical Experimental Animal Center) at 8 weeks old and 20±2 g of body weight, which is housed in a specific pathogen free (SPF) environment and access to food and water ad lib. The mice are randomly divided into 5 groups, with 10 mice in each group.
Bacterial agent group 1: mice were fed with high-fat feed every day, in which the AM25-6 bacterial solution (1×10^8 cfu/ml) was administered by gavage for 9 weeks after 4 weeks of feeding high-fat feed;
Bacterial agent group 2: mice were fed with high-fat feed every day, in which the DSM 17244 bacterial solution (1×10^8 cfu/ml) was administered by gavage for 9 weeks after 4 weeks of feeding high-fat feed;
Bacterial agent group 3: mice were fed with high-fat feed every day, in which the DSM 28733 bacterial solution (1×10^8 cfu/ml) was administered by gavage for 9 weeks after 4 weeks of feeding high-fat feed;
Obesity model group: mice were fed with high-fat feed every day, in which the culture medium in a same amount was administered by gavage for 9 weeks after 4 weeks of feeding high-fat feed.
During the experimental period, experimental data such as the body weight, body condition and food intake amount of mice were recorded every week. After the completion of experiment, the mice were sacrificed, and the fat weight was recorded and the serum was collected for detecting blood lipids by using the Elisa kit.

[6] = system: T2D mice model (C57bL/6 mice); assay: T2D animal model, oral glucose tolerance test (OGTT); settings: for Blood glucose in OGTT, 0 minute: 0 minute after glucose by gavage; for Blood glucose in OGTT, 30 minutes: 30 minutes after glucose by gavage; for Blood glucose in OGTT, 60 minutes: 60 minutes after glucose by gavage; for Blood glucose in OGTT, 90 minutes: 90 minutes after glucose by gavage; for Blood glucose in OGTT, 120 minutes: 120 minutes after glucose by gavage
Protocol: as §1, §6
The results of oral glucose tolerance test (OGTT) for mice shown in Table 8 indicate that the blood glucose of mice reaches the highest level (i.e., 17.8-23.1 mmol/L) at 30 minutes upon administration of glucose by gavage. […] From the perspective of overall glucose tolerance process, it can be seen that Anaerofustis stercorihominis can effectively ameliorate glucose intolerance in diabetic mice.

[7] = Week 9, *P<0.05 relative to model group

| Substance | ST-segment displacement (±S) [1] | Fasting blood glucose, Week 1 [2] | Fasting blood glucose, Week 3 [2] | Fasting blood glucose, Week 5 [2] | Fasting blood glucose, Week 7 [2] | Fasting blood glucose, Week 9 [2] | Body weight ([3]; Week 1) | Body weight ([3]; Week 3) | Body weight ([3]; Week 5) | Body weight ([3]; Week 7) | Body weight [3, 7] | blood viscosity [4] | HDLC (high-density lipoprotein) [4] | LDLC (low-density lipoprotein) [4] | TC (total cholesterol) [4] | TG (triglyceride) [4] | Weight of mice, Week 1 [5] | Weight of mice, Week 3 [5] | Weight of mice, Week 5 [5] | Weight of mice, Week 7 [5] | also measured |
| --- | --- | --- | --- | --- | --- | --- | --- | --- | --- | --- | --- | --- | --- | --- | --- | --- | --- | --- | --- | --- | --- |
| Anaerofustis stercorihominis AM25-6 [Bacterial agent group 1] | 0.017 ± 0.011** mv | 16.1 mmol/L | 15.6 mmol/L | 13.2* mmol/L | 10.4** mmol/L | 8.6** mmol/L | 22.34 g | 23.57 g | 24.26 g | 25.53 g | 25.97* g | 1.26* | 3.219 mmol/L | 1.454* mmol/L | 4.014* mmol/L | 0.893* mmol/L | 21.13 g | 22.59 g | 23.98 g | 24.13 g | Weight of mice, Week 9 [5]: 25.47* g; Blood glucose in OGTT, 0 minute [6]: 9.1 mmol/L; Blood glucose in OGTT, 30 minutes [6]: 17.8 mmol/L; Blood glucose in OGTT, 60 minutes [6]: 15.9 mmol/L; Blood glucose in OGTT, 90 minutes [6]: 11.5* mmol/L; Blood glucose in OGTT, 120 minutes [6]: 10.1 mmol/L |
| Anaerofustis stercorihominis DSM 17244 [Bacterial agent group 2] | 0.018 ± 0.012** mv | 15.8 mmol/L | 15.7 mmol/L | 14.6 mmol/L | 11.7* mmol/L | 9.0** mmol/L | 21.55 g | 22.43 g | 23.78 g | 25.13 g | 25.58* g | 1.29* | 3.219 mmol/L | 1.585* mmol/L | 4.021* mmol/L | 0.933* mmol/L | 20.15 g | 21.78 g | 22.99 g | 23.88 g | Weight of mice, Week 9 [5]: 25.62* g; Blood glucose in OGTT, 0 minute [6]: 9.7 mmol/L; Blood glucose in OGTT, 30 minutes [6]: 18.0 mmol/L; Blood glucose in OGTT, 60 minutes [6]: 14.9 mmol/L; Blood glucose in OGTT, 90 minutes [6]: 12.1* mmol/L; Blood glucose in OGTT, 120 minutes [6]: 9.9 mmol/L |
| Anaerofustis stercorihominis DSM 28733 [Bacterial agent group 3] | 0.020 ± 0.012** mv | 16.7 mmol/L | 15.5 mmol/L | 13.6* mmol/L | 10.4** mmol/L | 7.8** mmol/L | 21.76 g | 23.36 g | 24.57 g | 25.14 g | 25.45* g | 1.25* | 3.311 mmol/L | 1.423* mmol/L | 4.017* mmol/L | 0.912* mmol/L | 21.19 g | 22.44 g | 23.78 g | 24.19 g | Weight of mice, Week 9 [5]: 25.67* g; Blood glucose in OGTT, 0 minute [6]: 9.6 mmol/L; Blood glucose in OGTT, 30 minutes [6]: 18.2 mmol/L; Blood glucose in OGTT, 60 minutes [6]: 15.6 mmol/L; Blood glucose in OGTT, 90 minutes [6]: 11.7* mmol/L; Blood glucose in OGTT, 120 minutes [6]: 10.2 mmol/L |
